Assay results: US20030186817A1, “SUBSTITUTED 2,4-DIAMINO-1,3,5-TRIAZINES, PROCESSES FOR THEIR PREPARATION AND THEIR USE AS HERBICIDES AND PLANT GROWTH REGULATORS” (priority 1998, published 2003)

What was measured:
Format in all cases: in vivo
[1] = system: Stellaria media, Amaranthus retroflexus, Sinapis avreuse, Avena fatura, Lolium multiflorum and Setaria viridis; assay: Pre-emergence action against weeds (greenhouse pot test, visual rating); conditions: application rate of 3.0 kg or less of active substance per hectare, trial period of 3 to 4 weeks
Description: Seeds of mono- and dicotyledonous weed plants are placed in sandy loam soil in cardboard pots and covered with soil. The novel compounds, formulated as wettable powders or emulsion concentrates, are then applied to the surface of the soil cover in the form of an aqueous suspension or emulsion at an application rate of from 600 to 800 l of water/ha (converted), in various dosages. After the treatment, the pots are placed in a greenhouse and kept under good growth conditions for the weeds. After the test plants have emerged after a trial period of 3 to 4 weeks, the damage to the plants or the negative effect on emergence is rated visually by comparison with untreated controls. As shown by the test results, the novel compounds have good herbicidal pre-emergence activity against a broad spectrum of weed grasses and broad-leaved weeds.

[2] = system: Stellaria media, Amaranthus retroflexus, Sinapis avreuse, Avena fatura, Lolium multiflorum and Setaria viridis; assay: Post-emergence action against weeds (greenhouse pot test, visual rating); conditions: three-leaf stage, application rate of 3.0 kg or less of active substance per hectare, 3 to 4 weeks in greenhouse
Protocol: Seeds of mono- and dicotyledonous weeds are placed in sandy loam soil in cardboard pots, covered with soil and cultivated in a greenhouse under good growth conditions. Two to three weeks after sowing, the test plants are treated at the three-leaf stage. The novel compounds, formulated as wettable powders or emulsion concentrates, are sprayed in various dosages onto the green parts of the plant at an application rate of from 600 to 8001 of water/ha (converted), and, after the test plants have remained in the greenhouse for 3 to 4 weeks under optimum growth conditions, the action of the preparations is rated visually by comparison with untreated controls. The novel compositions also have good post-emergence herbicidal activity against a broad spectrum of economically important weed grasses and broad-leaved weeds.

[3] = system: Cyperus iria and Echinocloa crus-galli; assay: Action on weeds in rice (paddy rice conditions, visual rating); conditions: dammed height of water 2-3 cm, about three weeks after application; further: test concentration or dose not given here
Description: Typical rice weeds such as Echinocloa crus galli and Cyperus iria are cultivated in a greenhouse under paddy rice conditions ([…] height of water: 2-3 cm). After the treatment, the test plants are set up in a greenhouse under optimum growth conditions and are maintained in this way under these conditions throughout the test period. About three weeks after application, evaluation is made by visual rating of the damage to the plants by comparison with untreated controls.

With `COc1cccc(OCCC(C)Nc2nc(N)nc(C(C)C)n2)c1` (stereo not drawn) [Example 213] the “herbicidal activity pre-emergence (damage to the plants or negative effect on emergence, rated visually)” value (from here on “herbicidal activity pre-emergence”) [1] was “good and in most cases very good herbicidal activity”, the “herbicidal activity post-emergence (rated visually)” value (“herbicidal activity post-emergence” below) [2] was “good and in most cases very good herbicidal activity” and the “herbicidal activity against rice weeds (visual rating of damage)” value (from here on “herbicidal activity against rice weeds”) [3] was “very good herbicidal activity”.
`CCC(CCOc1cccc(Cl)c1)Nc1nc(N)nc(C(C)F)n1` (stereo not drawn) [Example 220] was tested, and the “herbicidal activity pre-emergence” value [1] was “good and in most cases very good herbicidal activity”, the “herbicidal activity post-emergence” value [2] was “good and in most cases very good herbicidal activity” and the “herbicidal activity against rice weeds” value [3] was “very good herbicidal activity”.
`CCC(CCOc1cccc(F)c1)Nc1nc(N)nc(C(C)(C)F)n1` (stereo not drawn) [Example 222] was tested, and the “herbicidal activity pre-emergence” value [1] was “good and in most cases very good herbicidal activity”, the “herbicidal activity post-emergence” value [2] was “good and in most cases very good herbicidal activity” and the “herbicidal activity against rice weeds” value [3] was “very good herbicidal activity”.
`CCC(CCOc1cccc(OC)c1)Nc1nc(N)nc(C(F)(F)C(F)F)n1` (stereo not drawn) [Example 228] was tested, and the “herbicidal activity pre-emergence” value [1] was “good and in most cases very good herbicidal activity”, the “herbicidal activity post-emergence” value [2] was “good and in most cases very good herbicidal activity” and the “herbicidal activity against rice weeds” value [3] was “very good herbicidal activity”.
In the case of `CCC(CCOc1ccccc1)Nc1nc(N)nc(C(C)C)n1` (stereo not drawn) [Example 231], the “herbicidal activity pre-emergence” value [1] is reported as “good and in most cases very good herbicidal activity”, the “herbicidal activity post-emergence” value [2] is reported as “good and in most cases very good herbicidal activity” and the “herbicidal activity against rice weeds” value [3] is reported as “very good herbicidal activity”.
With `CCC(CCOc1cccc(C)c1)Nc1nc(N)nc(C(C)(C)F)n1` (stereo not drawn) [Example 245] the “herbicidal activity pre-emergence” value [1] was “good and in most cases very good herbicidal activity”, the “herbicidal activity post-emergence” value [2] was “good and in most cases very good herbicidal activity” and the “herbicidal activity against rice weeds” value [3] was “very good herbicidal activity”.
For `Cc1cccc(OCCC(C)Nc2nc(N)nc(C(C)(C)F)n2)c1` (stereo not drawn) [Example 253], the “herbicidal activity pre-emergence” value [1] was “good and in most cases very good herbicidal activity”, the “herbicidal activity post-emergence” value [2] was “good and in most cases very good herbicidal activity” and the “herbicidal activity against rice weeds” value [3] was “very good herbicidal activity”.
`CC(CCOc1cc(F)cc(F)c1)Nc1nc(N)nc(C(C)C)n1` (stereo not drawn) [Example 281] was tested, and the “herbicidal activity pre-emergence” value [1] was “good and in most cases very good herbicidal activity”, the “herbicidal activity post-emergence” value [2] was “good and in most cases very good herbicidal activity” and the “herbicidal activity against rice weeds” value [3] was “very good herbicidal activity”.
For `CC(CCOc1cccc(Cl)c1)Nc1nc(N)nc(C(C)(C)F)n1` (stereo not drawn) [Example 299], the “herbicidal activity pre-emergence” value [1] was “good and in most cases very good herbicidal activity”, the “herbicidal activity post-emergence” value [2] was “good and in most cases very good herbicidal activity” and the “herbicidal activity against rice weeds” value [3] was “very good herbicidal activity”.
`COc1cccc(OCCC(C)Nc2nc(N)nc(C(C)(C)F)n2)c1` (stereo not drawn) [Example 303] was tested, and the “herbicidal activity pre-emergence” value [1] was “good and in most cases very good herbicidal activity”, the “herbicidal activity post-emergence” value [2] was “good and in most cases very good herbicidal activity” and the “herbicidal activity against rice weeds” value [3] was “very good herbicidal activity”.
For `CC(CCOc1cccc(F)c1)Nc1nc(N)nc(C(C)(C)F)n1` (stereo not drawn) [Example 308], the “herbicidal activity pre-emergence” value [1] was “good and in most cases very good herbicidal activity”, the “herbicidal activity post-emergence” value [2] was “good and in most cases very good herbicidal activity” and the “herbicidal activity against rice weeds” value [3] was “very good herbicidal activity”.
For `COc1cccc(OCCC(C)Nc2nc(N)nc(C(F)(F)C(F)F)n2)c1` (stereo not drawn) [Example 311], the “herbicidal activity pre-emergence” value [1] was “good and in most cases very good herbicidal activity”, the “herbicidal activity post-emergence” value [2] was “good and in most cases very good herbicidal activity” and the “herbicidal activity against rice weeds” value [3] was “very good herbicidal activity”.
With `Cc1cccc(OCCC(C)Nc2nc(N)nc(C(F)(F)C(F)F)n2)c1` (stereo not drawn) [Example 326] the “herbicidal activity pre-emergence” value [1] was “good and in most cases very good herbicidal activity”, the “herbicidal activity post-emergence” value [2] was “good and in most cases very good herbicidal activity” and the “herbicidal activity against rice weeds” value [3] was “very good herbicidal activity”.
In the case of `CC(CCOc1ccccc1)Nc1nc(N)nc(C(C)C)n1` (stereo not drawn) [Example 336], the “herbicidal activity pre-emergence” value [1] is reported as “good and in most cases very good herbicidal activity”, the “herbicidal activity post-emergence” value [2] is reported as “good and in most cases very good herbicidal activity” and the “herbicidal activity against rice weeds” value [3] is reported as “very good herbicidal activity”.
With `CCC(CCOc1cc(C)cc(C)c1)Nc1nc(N)nc(C(C)C)n1` (stereo not drawn) [Example 340] the “herbicidal activity pre-emergence” value [1] was “good and in most cases very good herbicidal activity”, the “herbicidal activity post-emergence” value [2] was “good and in most cases very good herbicidal activity” and the “herbicidal activity against rice weeds” value [3] was “very good herbicidal activity”.
For `CCC(CCOc1cccc(Cl)c1)Nc1nc(N)nc(C(F)(F)C(F)F)n1` (stereo not drawn) [Example 347], the “herbicidal activity pre-emergence” value [1] was “good and in most cases very good herbicidal activity”, the “herbicidal activity post-emergence” value [2] was “good and in most cases very good herbicidal activity” and the “herbicidal activity against rice weeds” value [3] was “very good herbicidal activity”.
`CCC(CCOc1cccc(C)c1)Nc1nc(N)nc(C(C)C)n1` (stereo not drawn) [Example 358] was tested, and the “herbicidal activity pre-emergence” value [1] was “good and in most cases very good herbicidal activity”, the “herbicidal activity post-emergence” value [2] was “good and in most cases very good herbicidal activity” and the “herbicidal activity against rice weeds” value [3] was “very good herbicidal activity”.
`CC(CCOc1ccccc1)Nc1nc(N)nc(C(C)(C)F)n1` (stereo not drawn) [Example 368, 2-amino-4-fluoroisopropyl-6-[N-(1-methyl-3-phenoxyprop-1-yl)amino]-1,3,5-triazine] was tested, and the “herbicidal activity pre-emergence” value [1] was “good and in most cases very good herbicidal activity”, the “herbicidal activity post-emergence” value [2] was “good and in most cases very good herbicidal activity” and the “herbicidal activity against rice weeds” value [3] was “very good herbicidal activity”.
For `CCC(CCOc1ccccc1)Nc1nc(N)nc(C(C)(C)F)n1` (stereo not drawn) [Example 369], the “herbicidal activity pre-emergence” value [1] was “good and in most cases very good herbicidal activity”, the “herbicidal activity post-emergence” value [2] was “good and in most cases very good herbicidal activity” and the “herbicidal activity against rice weeds” value [3] was “very good herbicidal activity”.
With `CCC(CCOc1cc(F)cc(F)c1)Nc1nc(N)nc(C(C)(C)F)n1` (stereo not drawn) [Example 370] the “herbicidal activity pre-emergence” value [1] was “good and in most cases very good herbicidal activity”, the “herbicidal activity post-emergence” value [2] was “good and in most cases very good herbicidal activity” and the “herbicidal activity against rice weeds” value [3] was “very good herbicidal activity”.
